The values that follow are results of earlier work, collected in patent publication US20050148556A1, “Compositions and methods for increasing HDL and HDL-2b levels” (priority 2003, published 2005).

Molecules are shown by their SMILES.

For the series the following is noted: in vivo.

As to `CN(C)C(=N)N=C(N)N` [Metformin, metformin], the “HDL cholesterol levels after metformin therapy” value is listed as “either do not change or increase slightly”.
